According to ChEMBL document CHEMBL3525928 (Drug Metab Dispos, 2011):

Columns and labels:
Type in all cases: ADME, cell-based
OATP1B1 [1] = target: T1, OATP1B1 (Homo sapiens, UniProt Q9Y6L6); assay: Drug uptake ratio assessed as enzyme-mediated uptake in HEK293 cells expressing human OATP1B1 at 1 uM at 37 degC for 3 mins by liquid scintillation spectroscopy relative to wild type
T1 sequence (Q9Y6L6 whole entry): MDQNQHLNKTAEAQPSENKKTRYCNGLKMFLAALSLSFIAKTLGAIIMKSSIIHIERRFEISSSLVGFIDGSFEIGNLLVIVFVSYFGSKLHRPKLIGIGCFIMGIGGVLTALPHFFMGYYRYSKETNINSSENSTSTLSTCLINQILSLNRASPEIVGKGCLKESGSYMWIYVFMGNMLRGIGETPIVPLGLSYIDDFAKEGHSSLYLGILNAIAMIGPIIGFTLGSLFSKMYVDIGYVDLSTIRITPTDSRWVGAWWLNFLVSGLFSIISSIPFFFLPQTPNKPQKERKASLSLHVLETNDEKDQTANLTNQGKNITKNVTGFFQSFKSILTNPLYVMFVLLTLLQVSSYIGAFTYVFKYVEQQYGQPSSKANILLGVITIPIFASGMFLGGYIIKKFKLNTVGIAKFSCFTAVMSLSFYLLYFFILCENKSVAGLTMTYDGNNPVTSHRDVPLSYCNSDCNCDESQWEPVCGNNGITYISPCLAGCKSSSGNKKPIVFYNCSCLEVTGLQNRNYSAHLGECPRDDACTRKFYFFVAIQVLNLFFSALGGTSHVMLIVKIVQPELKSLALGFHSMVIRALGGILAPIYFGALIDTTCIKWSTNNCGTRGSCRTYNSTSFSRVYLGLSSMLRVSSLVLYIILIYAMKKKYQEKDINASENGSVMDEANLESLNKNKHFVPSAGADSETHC

OATP2B1 [2] = target: T2, OATP2B1 (Homo sapiens, UniProt O94956); assay: Drug uptake ratio assessed as enzyme-mediated uptake in HEK293 cells expressing human OATP2B1 at 1 uM at 37 degC for 3 mins by liquid scintillation spectroscopy relative to wild type
T2 sequence (O94956 whole entry): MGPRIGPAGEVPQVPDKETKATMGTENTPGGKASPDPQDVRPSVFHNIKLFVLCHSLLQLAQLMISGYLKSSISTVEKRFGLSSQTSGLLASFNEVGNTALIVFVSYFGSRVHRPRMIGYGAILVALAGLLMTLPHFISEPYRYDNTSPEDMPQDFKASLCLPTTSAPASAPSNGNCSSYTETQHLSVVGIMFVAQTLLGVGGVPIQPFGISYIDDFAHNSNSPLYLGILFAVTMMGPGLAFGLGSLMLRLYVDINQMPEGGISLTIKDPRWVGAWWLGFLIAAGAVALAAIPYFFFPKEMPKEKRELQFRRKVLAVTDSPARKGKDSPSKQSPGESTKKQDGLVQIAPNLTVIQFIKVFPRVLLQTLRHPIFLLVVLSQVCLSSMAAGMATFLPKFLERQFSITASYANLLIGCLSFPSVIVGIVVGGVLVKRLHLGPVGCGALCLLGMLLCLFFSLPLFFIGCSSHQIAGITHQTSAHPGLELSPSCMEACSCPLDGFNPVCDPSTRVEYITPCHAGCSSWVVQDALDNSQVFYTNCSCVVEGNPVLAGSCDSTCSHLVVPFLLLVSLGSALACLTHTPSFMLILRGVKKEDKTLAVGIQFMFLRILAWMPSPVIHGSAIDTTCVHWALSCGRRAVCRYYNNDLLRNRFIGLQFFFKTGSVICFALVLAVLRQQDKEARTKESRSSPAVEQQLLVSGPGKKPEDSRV

OATP1B1 [3] = target: T1, OATP1B1; assay: Drug uptake ratio assessed as enzyme-mediated uptake in HEK293 cells expressing human OATP1B1 at 10 uM at 37 degC for 3 mins by liquid scintillation spectroscopy relative to wild type
OATP2B1 [4] = target: T2, OATP2B1; assay: Drug uptake ratio assessed as enzyme-mediated uptake in HEK293 cells expressing human OATP2B1 at 10 uM at 37 degC for 3 mins by liquid scintillation spectroscopy relative to wild type
OATP1B3 [5] = target: T3, OATP1B3 (Homo sapiens, UniProt Q9NPD5); assay: Drug uptake ratio assessed as enzyme-mediated uptake in HEK293 cells expressing human OATP1B3 at 10 uM at 37 degC for 3 mins cells pretreated with sodium butyrate by liquid scintillation spectroscopy relative to wild type
T3 sequence (Q9NPD5 whole entry): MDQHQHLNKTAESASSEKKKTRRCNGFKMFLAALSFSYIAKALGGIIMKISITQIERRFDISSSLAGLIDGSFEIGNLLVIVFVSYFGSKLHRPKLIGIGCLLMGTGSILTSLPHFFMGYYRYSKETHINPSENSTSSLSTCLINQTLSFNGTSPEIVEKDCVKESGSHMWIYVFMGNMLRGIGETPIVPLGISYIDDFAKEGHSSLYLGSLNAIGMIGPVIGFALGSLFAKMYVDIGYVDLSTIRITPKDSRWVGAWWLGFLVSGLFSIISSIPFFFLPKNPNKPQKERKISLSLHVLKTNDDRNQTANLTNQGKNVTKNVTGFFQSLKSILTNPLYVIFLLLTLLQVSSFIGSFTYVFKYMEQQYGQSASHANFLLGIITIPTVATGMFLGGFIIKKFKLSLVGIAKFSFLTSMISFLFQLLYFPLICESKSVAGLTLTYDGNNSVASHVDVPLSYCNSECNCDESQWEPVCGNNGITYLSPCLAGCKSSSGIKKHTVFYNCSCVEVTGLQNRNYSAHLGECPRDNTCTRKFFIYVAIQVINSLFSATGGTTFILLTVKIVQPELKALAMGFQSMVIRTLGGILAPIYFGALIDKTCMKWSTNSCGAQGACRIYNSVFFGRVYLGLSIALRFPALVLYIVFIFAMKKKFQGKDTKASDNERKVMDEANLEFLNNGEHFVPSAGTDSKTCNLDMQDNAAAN

OATP1B3 [6] = target: T3, OATP1B3; assay: Drug uptake ratio assessed as enzyme-mediated uptake in HEK293 cells expressing human OATP1B3 at 1 uM at 37 degC for 3 mins cells pretreated with sodium butyrate by liquid scintillation spectroscopy relative to wild type
OATP1B3 [7] = target: T3, OATP1B3; assay: Drug uptake ratio assessed as enzyme-mediated uptake in HEK293 cells expressing human OATP1B3 at 10 uM at 37 degC for 3 mins by liquid scintillation spectroscopy relative to wild type
OATP1B3 [8] = target: T3, OATP1B3; assay: Drug uptake ratio assessed as enzyme-mediated uptake in HEK293 cells expressing human OATP1B3 at 1 uM at 37 degC for 3 mins by liquid scintillation spectroscopy relative to wild type

Compound	uptake ratio at 0.05 h, 1 µM (OATP1B1 [1])	uptake ratio at 0.05 h, 1 µM (OATP2B1 [2])	uptake ratio at 0.05 h, 10 µM (OATP1B1 [3])	uptake ratio at 0.05 h, 10 µM (OATP2B1 [4])	uptake ratio at 0.05 h, 10 µM (OATP1B3 [5])	uptake ratio at 0.05 h, 1 µM (OATP1B3 [6])	uptake ratio at 0.05 h, 10 µM (OATP1B3 [7])	uptake ratio at 0.05 h, 1 µM (OATP1B3 [8])
C[C@]12CC[C@@H]3c4ccc(OS(=O)(=O)O)cc4CC[C@H]3[C@@H]1CCC2=O [ESTRONE SULFURIC ACID]	6.7	44	2.2	50	–	–	–	–
Cc1ncc2n1-c1ccc(Cl)cc1C(c1ccccc1F)=NC2 [MIDAZOLAM]	0.92	–	0.92	–	1.9	2.1	1.7	1.7
CC(C)c1nc(N(C)S(C)(=O)=O)nc(-c2ccc(F)cc2)c1/C=C/[C@@H](O)C[C@@H](O)CC(=O)O [ROSUVASTATIN]	3.4	6	1.9	6.3	25	16	39	35
